Source: ChEMBL document CHEMBL1129001, “From indomethacin to a selective COX-2 inhibitor: Development of indolalkanoic acids as potent and selective cyclooxygenase-2 inhibitors” (Bioorg Med Chem Lett, 1996)

Key:
Rattus norvegicus = test: Compound was evaluated for inhibition of paw edema in rat; assay type: functional
[1] = target: T1, Prostaglandin G/H synthase 2 (Rattus norvegicus, UniProt P35355)
T1 sequence (P35355 whole entry): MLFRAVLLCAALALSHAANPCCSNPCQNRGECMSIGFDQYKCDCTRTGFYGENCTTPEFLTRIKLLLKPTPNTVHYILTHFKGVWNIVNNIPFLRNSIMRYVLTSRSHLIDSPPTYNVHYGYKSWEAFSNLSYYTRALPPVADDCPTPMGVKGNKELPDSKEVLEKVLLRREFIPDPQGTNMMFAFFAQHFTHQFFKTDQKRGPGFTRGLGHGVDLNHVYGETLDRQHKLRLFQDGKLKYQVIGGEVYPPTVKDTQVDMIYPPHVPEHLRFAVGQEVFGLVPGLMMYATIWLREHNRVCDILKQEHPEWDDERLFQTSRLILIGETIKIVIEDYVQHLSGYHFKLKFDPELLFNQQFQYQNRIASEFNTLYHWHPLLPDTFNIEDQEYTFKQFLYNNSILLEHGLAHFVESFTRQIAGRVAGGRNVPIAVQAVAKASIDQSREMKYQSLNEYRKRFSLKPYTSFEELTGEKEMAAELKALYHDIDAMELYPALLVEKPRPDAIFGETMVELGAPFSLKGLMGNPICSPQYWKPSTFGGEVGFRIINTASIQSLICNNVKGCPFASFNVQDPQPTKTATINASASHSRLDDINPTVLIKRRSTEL
Description: Inhibition of Prostaglandin G/H synthase 2

[2] = target: T2, Prostaglandin G/H synthase 1 (Rattus norvegicus, UniProt Q63921)
T2 sequence (Q63921 whole entry): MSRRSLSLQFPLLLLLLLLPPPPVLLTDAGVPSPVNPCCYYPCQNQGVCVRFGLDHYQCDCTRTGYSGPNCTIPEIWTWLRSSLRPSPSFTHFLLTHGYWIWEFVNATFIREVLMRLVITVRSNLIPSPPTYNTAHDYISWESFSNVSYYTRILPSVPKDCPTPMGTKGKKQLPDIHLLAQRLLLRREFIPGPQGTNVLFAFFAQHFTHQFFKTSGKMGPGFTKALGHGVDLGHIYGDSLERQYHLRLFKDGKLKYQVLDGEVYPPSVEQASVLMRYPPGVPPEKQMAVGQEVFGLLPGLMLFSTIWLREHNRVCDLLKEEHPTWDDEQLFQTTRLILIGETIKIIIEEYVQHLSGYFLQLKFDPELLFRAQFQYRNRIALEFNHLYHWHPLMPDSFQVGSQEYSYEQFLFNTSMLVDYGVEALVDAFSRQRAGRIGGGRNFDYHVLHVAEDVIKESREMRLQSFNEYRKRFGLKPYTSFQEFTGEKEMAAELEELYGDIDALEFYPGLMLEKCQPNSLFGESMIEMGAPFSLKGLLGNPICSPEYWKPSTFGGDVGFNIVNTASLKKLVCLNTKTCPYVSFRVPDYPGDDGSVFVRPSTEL
Description: Inhibition of Prostaglandin G/H synthase 1 using whole cell assay

| IC50 [1] [nM] | IC50 [2] [nM] | SMILES | ED30 (Rattus norvegicus) [mg/kg] |
| --- | --- | --- | --- |
| 6 | > 50000 | COc1ccc2c(c1)c(CCCC(=O)O)c(C)n2Cc1ccc(Br)cc1 | 1.2 |
| 4 | > 50000 | COc1ccc2c(c1)c(C(C)CC(=O)O)c(C)n2Cc1ccc(Br)cc1 (centres undefined) | 0.6 |
| 9 | 41000 | COc1ccc2c(c1)c(CC(=O)O)c(C)n2Cc1ccc(Br)cc1 | 0.6 |
| 20 | 11000 | COc1ccc2c(c1)c(C(C)C(=O)O)c(C)n2Cc1ccc(Cl)cc1 (centres undefined) | 3 |
| 3 | > 50000 | COc1ccc2c(c1)c(CC(C)C(=O)O)c(C)n2Cc1ccc(Br)cc1 (centres undefined) | 2.6 |
| – | – | COc1ccc2c(c1)c(CC(=O)O)c(C)n2C(=O)c1ccc(Cl)cc1 [INDOMETHACIN] | 0.9 |
| 16 | > 10000 | COc1ccc2c(c1)c(CC1(CC(=O)O)CC1)c(C)n2Cc1ccc(Br)cc1 | 0.5 |
| 4 | > 10000 | COc1ccc2c(c1)c(CCC(C)C(=O)O)c(C)n2Cc1ccc(Br)cc1 (centres undefined) | 1.6 |
| 60 | > 50000 | COc1ccc2c(c1)c([C@@H](C)[C@@H](C)C(=O)O)c(C)n2Cc1ccc(Br)cc1 | 0.6 |
| 3 | > 50000 | COc1ccc2c(c1)c(CCC(=O)O)c(C)n2Cc1ccc(Br)cc1 | > 3 |
| 500 | > 100000 | COc1ccc2c(c1)c(CC(=O)O)c(C)n2C(=O)c1c(Cl)cc(Cl)cc1Cl | 1.3 |

| SMILES | IC50 [1] [nM] | IC50 [2] [nM] | ED30 (Rattus norvegicus) [mg/kg] |
| --- | --- | --- | --- |
| COc1ccc2c(c1)c(CC(C)CC(=O)O)c(C)n2Cc1ccc(Br)cc1 (centres undefined) | 2 | > 10000 | 0.4 |
